Assay results taken from ChEMBL document CHEMBL6182866, “Design, synthesis, molecular docking and ADME of novel phenylalanine derivatives as mushroom tyrosinase inhibitors” (Bioorg Med Chem Lett, 2025).
Activity calls are given as the source filed them. The rule behind the calls is not given here.

Legend:
Mushroom tyrosinase = Mushroom tyrosinase (Agaricus bisporus, UniProt O42713+Q00024+C7FF04+C7FF05); assay: Inhibition of mushroom tyrosinase using L-DOPA as substrate assessed as reduction in diphenolase activity; format: protein assay
[1] = molecular target: T1, Mushroom tyrosinase (Agaricus bisporus) (UniProt O42713+Q00024+C7FF04+C7FF05); assay: Competitive inhibition of mushroom tyrosinase using L-DOPA as substrate assessed as increase in Km with constant Vmax up to 10 uM by Lineweaver-Burk plot analysis; format: protein assay
[2] = molecular target: T1, Mushroom tyrosinase (Agaricus bisporus); assay: Reversible inhibition of mushroom tyrosinase using L-DOPA as substrate up to 10 uM; format: protein assay
[3] = molecular target: T2, Tyrosinase (Homo sapiens) (UniProt P14679); assay: Inhibition of human TYR using L-DOPA as substrate assessed as reduction in diphenolase activity by absorbance based assay
T2 sequence (whole entry): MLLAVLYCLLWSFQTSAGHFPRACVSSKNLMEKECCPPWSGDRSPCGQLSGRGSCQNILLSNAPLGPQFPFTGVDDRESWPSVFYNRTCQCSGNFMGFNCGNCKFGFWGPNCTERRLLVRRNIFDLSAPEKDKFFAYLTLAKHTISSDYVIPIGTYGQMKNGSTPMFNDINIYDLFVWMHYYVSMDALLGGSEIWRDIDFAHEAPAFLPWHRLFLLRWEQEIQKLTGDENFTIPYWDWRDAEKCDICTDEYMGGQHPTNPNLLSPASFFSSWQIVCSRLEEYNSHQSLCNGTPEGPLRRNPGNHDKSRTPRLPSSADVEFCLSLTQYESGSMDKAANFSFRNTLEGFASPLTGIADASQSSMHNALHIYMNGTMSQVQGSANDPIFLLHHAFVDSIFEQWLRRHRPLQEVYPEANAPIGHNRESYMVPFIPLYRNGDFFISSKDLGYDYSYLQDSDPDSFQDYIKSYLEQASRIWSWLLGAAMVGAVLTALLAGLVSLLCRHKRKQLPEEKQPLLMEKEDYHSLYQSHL

IC50 (Mushroom tyrosinase) [µM] | SMILES | also measured
11.95 | O=C(OCc1ccc([N+](=O)[O-])cc1)C(Cc1ccccc1)NCc1ccc(Br)cc1 (configuration not stated) | 
10.58 | O=C(OCc1ccc([N+](=O)[O-])cc1)C(Cc1ccccc1)NCc1ccc([N+](=O)[O-])cc1 (configuration not stated) | 
11.77 | O=C(OCc1ccc(F)cc1)C(Cc1ccccc1)NCc1ccc([N+](=O)[O-])cc1 (configuration not stated) | 
6.78 | O=C(OCc1ccc([N+](=O)[O-])cc1)C(Cc1ccccc1)NCc1ccc(Cl)cc1Cl (configuration not stated) | 
4.86 | O=C(OCc1ccc([N+](=O)[O-])cc1)C(Cc1ccccc1)NCc1ccc(Cl)c([N+](=O)[O-])c1 (configuration not stated) | inhibition [3]: Dose-dependent-effect; inhibition [1]: Active; inhibition [2]: Active
18.2 | O=C(OCc1ccc(F)cc1)C(Cc1ccccc1)NCc1ccccc1Cl (configuration not stated) | 
16.99 | O=C(OCc1ccc([N+](=O)[O-])cc1)C(Cc1ccccc1)NCc1ccccc1Cl (configuration not stated) | 

The next lines start with the compound.

SMILES | IC50 (Mushroom tyrosinase) [µM] | also measured
O=C(O)C(Cc1ccccc1)NCc1ccc(Cl)c([N+](=O)[O-])c1 (configuration not stated) | > 100 | 
CC(C)C(=O)Nc1nc(-c2ccc(O)cc2O)cs1 | 48.12 | 
O=C(OCc1ccc(F)cc1)C(Cc1ccccc1)NCc1ccc(Cl)cc1Cl (configuration not stated) | 8.33 | 
O=C(OCc1cc(=O)c(O)co1)C(Cc1ccccc1)NCc1ccc(Br)cc1 (configuration not stated) | 15.26 | 
O=C(OCc1cc(=O)c(O)co1)C(Cc1ccccc1)NCc1ccc(Cl)cc1Cl (configuration not stated) | 10.35 | inhibition [1]: Active; inhibition [2]: Active
O=C(O)C(Cc1ccccc1)NCc1ccc([N+](=O)[O-])cc1 (configuration not stated) | 42.4 | 
O=C(OCc1cc(=O)c(O)co1)C(Cc1ccccc1)NCc1ccc([N+](=O)[O-])cc1 (configuration not stated) | 13.43 | 
O=C(O)C(Cc1ccccc1)NCc1ccc(Br)cc1 (configuration not stated) | 31.05 | 
O=C(OCc1cc(=O)c(O)co1)C(Cc1ccccc1)NCc1ccccc1Cl (configuration not stated) | 20.64 | 
O=C(OCc1ccc(F)cc1)C(Cc1ccccc1)NCc1ccc(Cl)c([N+](=O)[O-])c1 (configuration not stated) | 6.11 | 
O=C(O)C(Cc1ccccc1)NCc1ccccc1Cl (configuration not stated) | > 100 | 
O=C(O)C(Cc1ccccc1)NCc1ccc(Cl)cc1Cl (configuration not stated) | > 100 | 
O=C(OCc1cc(=O)c(O)co1)C(Cc1ccccc1)NCc1ccc(Cl)c([N+](=O)[O-])c1 (configuration not stated) | 11.65 | 
O=c1cc(CCl)occ1O | 33.05 | 
O=C(OCc1ccc(F)cc1)C(Cc1ccccc1)NCc1ccc(Br)cc1 (configuration not stated) | 16.07 | 
